# Measured values: publication PMC10647589, “Heterogeneous Cellular Response of Primary and Metastatic Human Gastric Adenocarcinoma Cell Lines to Magnoflorine and Its Additive Interaction with Docetaxel” (International Journal of Molecular Sciences, 2023)
# Columns and labels:
# zebrafish larvae = assay: Locomotor activity assay in larval zebrafish; assay type: in vivo; settings: MGN 100, 175 or 250 µg/mL, after 95 h incubation
# Description: Locomotor activity was examined to determine whether chronic MGN exposure may induce neurotoxic effects in fish. Noldusapparatus (EthoVision XT, Wageningen, The Netherlands) was used for this purpose. After 95 h of incubation in different doses of MGN (100, 175 or 250 µg/mL), each larva was placed individually in the wells of a 48-well plate filled with 300 µL of the medium. After 15 min of habituation, larval activity was tracked in the light phase for a period of 30 min. The distance covered by each larva in millimeters (mm) was assessed.
# [1] = system: human GC cells ACC-201, AGS, MKN-74 and NCI-N87; assay: BrdU incorporation assay; assay type: cell-based; settings: MGN 2–75 μg/mL, 72 h, four GC cell lines
# Description: The human GC cells ACC-201, AGS, MKN-74 and NCI-N87 were placed in 96-well plates and allowed to adhere overnight. On the following day, the growth medium was replaced with fresh medium, and the cells were exposed to a series of tested MGN dilutions (2.0–75 µg/mL) for 72 h. Cell proliferation was quantified according to the manufacturer’s instruction, Cell Proliferation ELISA, BrdU (colorimetric) (Biorbyt, Cambridge, UK). Briefly, BrdU reagent was added to the medium, followed by Fixative/Denaturing Solution for 30 min at room temperature. Incorporated BrdU in the place of thymidine in the cell’s DNA under division was detected using mouse monoclonal anti-BrdU for 1 h at room temperature, followed by horseradish peroxidase (HRP)-linked goat anti-mouse IgG secondary antibody and tetramethylbenzidine (a HRP substrate) for 30 min at room temperature. The absorbance was measured at 450 nm using Infinite M200 Pro microplate reader (Tecan, Männedorf, Switzerland). Results are presented as a percentage of BrdU incorporation vs. control cells (indicated as 100%).
# [2] = system: zebrafish embryos and larvae; assay: Zebrafish embryo toxicity test (OECD test no. 236, modified); assay type: in vivo
# Description: At first, zebrafish embryos were screened and sorted one hour after fertilization. Only perfectly transparent and fertilized embryos were transferred to plastic well plates. […] Developing embryos were incubated in the MGN solutions until 96 hpf. The amounts of MGN absorbed by zebrafish were measured in 96 hpf-old larvae (n = 50 larvae/sample, three samples/dose) through the use of HPLC-MS. The larvae were first washed in medium prior to homogenization with the additive of acetonitrile:water mixture in equal proportions (50:50 v/v). The homogenate was centrifuged at 20,000 rpm for 20 min, and the supernatant was pipetted, filtered through a nylon syringe filter (nominal pore size of 0.1 µm diameter) and subjected to HPLC-MS analysis in the positive ionization mode.
# The following phenotypic features were scored in larvae exposed to different doses of MGN: (I) hatchability at 72 and 96 hpf, (II) morphological anomalies at 96 hpf, and (III) escape response at 96 hpf. Morphological analysis included the presence/lack of swim bladder, body axis/shape, presence/lack of pericardial edema, jaw development, normal/necrotic yolk sac, presence/absence of hemorrhage and changes in pigmentation. For photographs, each larva was anaesthetized and mounted on a glass slide. To evaluate the muscle performance and function in MGN-incubated larvae, in a separate cohort of 96 hours-old larvae, we assessed escape response by touching the tail with the tip of a needle.
# ACC-201 human GC cells = assay: MTT assay (viability; isobolographic analysis); assay type: cell-based; settings: ACC-201, 72 h incubation, mean ± SEM
# Description: (§1) The human GC cells ACC-201, AGS, MKN-74 and NCI-N87 were placed in 96-well plates and allowed to adhere overnight. On the following day, the growth medium was removed, and the cells were treated with a series of tested MGN and DCT dilutions (2.0–75 and 0.0004–0.0404 µg/mL, respectively) for 72 h at 37 °C. […] Subsequently, a solution of MTT (5 mg/mL) was added to each well, and the cells were further incubated for 3 h at 37 °C. Tetrazolium salt was reduced to violet formazan derivatives via the succinate dehydrogenase of metabolically active cells. Insoluble formazan compounds formed inside the cells were extracted with a sodium dodecyl sulfate buffer (10% SDS in 0.01 N HCl) overnight to achieve a quantitative assessment of the amount produced. The absorbance of the samples was measured at 570 nm using Infinite M200 Pro microplate reader (Tecan, Männedorf, Switzerland). Cell viability was presented as a percentage relative to the untreated control cells.
# (§2) Interactions between MGN and DCT analyzed after 72 h in four different GC cell lines (ACC-201, AGS, MKN-74 and NCI-N87) were characterized by means of an isobolographic analysis in the MTT assay. The percentage inhibition of cell viability accompanied by the specific concentrations of the tested substances (MGN and DCT) were transferred to the MS Excel spreadsheet, and the data were computed using the log–probit method. Next, the concentration–response effect graphs for the tested drugs (MGN and DCT) were drawn, and the IC50 values for every tested drug were calculated. The cooperative effect of two concentration–response lines was tested for the MGN and DCT combination, as previously described. The calculations of IC50 values (±SEM) were computed with formulas originally derived from the log–probit method and adapted to the in vitro conditions, as described earlier. The concentration–response lines for MGN and DCT were not parallel, and thus, the isobolographic additivity was illustrated graphically as an area bounded by two (upper and lower) lines of additivity. From the experimentally denoted IC50 values for MGN and DCT in the MTT assay, median additive inhibitory concentrations (IC50add) for the mixture (at the fixed ratio of 1:1 of MGN and DCT) in various cell lines (ACC-201, AGS, MKN-74 and NCI-N87) were calculated, as described previously. More information on isobolographic analysis can be found in the literature.
# NCI-N87 human GC cells = assay: MTT assay (viability; isobolographic analysis); assay type: cell-based; settings: NCI-N87, 72 h incubation, mean ± SEM
# Description: as §1, §2
# AGS human GC cells = assay: MTT assay (viability; isobolographic analysis); assay type: cell-based; settings: 72 h incubation, mean ± SEM
# Description: as §1, §2
# MKN-74 human GC cells = assay: MTT assay (viability; isobolographic analysis); assay type: cell-based; settings: MKN-74, 72 h incubation, mean ± SEM
# Description: as §1, §2
structure (smiles),measurement,setting,value
"COc1ccc2c(c1O)-c1c(O)c(OC)cc3c1[C@H](C2)[N+](C)(C)CC3 [MGN, magnoflorine]",locomotor activity: distance travelled within 30 min vs control,zebrafish larvae,No differences between the tested groups
same,BrdU-labeled DNA (proliferation),[1],dose-dependent decrease
same,Hatching rate,"[2]; MGN 100 µg/mL, scored at 72 hpf",100%
same,Hatching rate,"[2]; MGN 100 µg/mL, scored at 96 hpf",100%
same,Hatching rate,"[2]; MGN 175 µg/mL, scored at 72 hpf",100%
same,Hatching rate,"[2]; MGN 175 µg/mL, scored at 96 hpf",100%
same,Hatching rate,"[2]; MGN 250 µg/mL, scored at 72 hpf",52.77%
same,Hatching rate,"[2]; MGN 250 µg/mL, scored at 96 hpf",94.44%
same,larvae with curved body axis,"[2]; MGN 500 µg/mL, 96 hpf",43%
same,larvae with delayed touch response,"[2]; MGN 500 µg/mL, 96 hpf",70%
same,larvae with heart edema,"[2]; MGN 500 µg/mL, 96 hpf",40%
same,larvae with lack of swim bladder,"[2]; MGN 500 µg/mL, 96 hpf",93%
same,larvae with underdeveloped jaw,"[2]; MGN 500 µg/mL, 96 hpf",90%
same,larvae with yolk sac necrosis,"[2]; MGN 500 µg/mL, 96 hpf",46%
same,Hatching rate,"[2]; MGN 500 µg/mL, scored at 72 hpf",23.33%
same,Hatching rate,"[2]; MGN 500 µg/mL, scored at 96 hpf",86.66%
same,Hatching,"[2]; MGN 750 µg/mL, up to 96 h",none of the larvae hatched
same,Survival,"[2]; MGN 750 µg/mL, up to 96 h",all survived in chorions
same,concentration with no evidence of toxicity,"[2]; developing zebrafish, chronic exposure from 1 hpf to 96 hpf",up to 250 µg/mL
same,morphological parameters scored,"[2]; three lowest concentrations (100, 175, 250 µg/mL), 96 hpf",did not affect any of the parameters scored
same,IC50,ACC-201 human GC cells,15.8 ± 2.79 µg/mL
same,IC50,NCI-N87 human GC cells,33.3 ± 5 µg/mL
same,IC50,AGS human GC cells,17.2 ± 3.59 µg/mL
same,IC50,MKN-74 human GC cells,34.8 ± 6.04 µg/mL
